Test results reported in US5041567A, “Antibacterial monic acid derivatives” (Beecham Group plc, priority 1982, dated 1991).
Converted amounts (≈) assume the structure as drawn. Read-outs that look alike come from different tables or passages of the source.

Experiments:
M. suipneumoniae NB12 = assay: MIC against mycoplasma in vitro; type: cell-based; conditions: Mesomycoplasma hyopneumoniae, 144 h; M. suipneumoniae NB12; Friis broth, 0.9% agarose, 6 days, 37° C.; read-out: MIC
M. suipneumoniae JF 435 = assay: MIC against mycoplasma in vitro; type: cell-based; conditions: Mesomycoplasma hyopneumoniae, JF435, 144 h; M. suipneumoniae JF 435; 6 days, 37° C.; read-out: MIC
M. suipneumoniae Str. 11 = assay: MIC against mycoplasma in vitro; type: cell-based; conditions: Mesomycoplasma hyopneumoniae, 144 h; M. suipneumoniae Str. 11; 6 days, 37° C.; read-out: MIC
M. suipneumoniae MS 16 = assay: MIC against mycoplasma in vitro; type: cell-based; conditions: Mesomycoplasma hyopneumoniae, MS16, 144 h; M. suipneumoniae MS 16; 6 days, 37° C.; read-out: MIC
[1] = test system: M. suipneumoniae PW/C/210; assay: MIC against mycoplasma in vitro; type: cell-based; conditions: Mesomycoplasma hyopneumoniae, 144 h; M. suipneumoniae PW/C/210; 6 days, 37° C.; read-out: MIC
M. suipneumoniae UCD 1 = assay: MIC against mycoplasma in vitro; type: cell-based; conditions: Mesomycoplasma hyopneumoniae, UCD1, 144 h
M. suipneumoniae TAM 6N = assay: MIC against mycoplasma in vitro; type: cell-based; conditions: Mesomycoplasma hyopneumoniae, TAM6N, 144 h; M. suipneumoniae TAM 6N; 6 days, 37° C.; read-out: MIC
[2] = test system: M. suipneumoniae ATCC 25095; assay: MIC against mycoplasma in vitro; type: cell-based; conditions: Mesomycoplasma hyopneumoniae, ATCC25095, 144 h; M. suipneumoniae ATCC 25095; 6 days, 37° C.; read-out: MIC
[3] = test system: M. suipneumoniae NCTC 10110; assay: MIC against mycoplasma in vitro; type: cell-based; conditions: Mesomycoplasma hyopneumoniae, NCTC10110, 144 h
M. hyorhinis ATCC 25021 = assay: MIC against mycoplasma in vitro; type: cell-based; conditions: Mesomycoplasma hyorhinis, ATCC25021, 144 h; M. hyorhinis ATCC 25021; 6 days, 37° C.; read-out: MIC
[4] = test system: M. bovigenitalium ATCC 14173; assay: MIC against mycoplasma in vitro; type: cell-based; conditions: 144 h
M. dispar NCTC 10125 = assay: MIC against mycoplasma in vitro; type: cell-based; conditions: 144 h
M. gallisepticum S6 = assay: MIC against mycoplasma in vitro; type: cell-based; conditions: Mycoplasmoides gallisepticum, 144 h; M. gallisepticum S6; 6 days, 37° C.; read-out: MIC
E. coli NCTC 10418 [5] = assay: MIC against human bacteria in vitro; type: cell-based; conditions: Escherichia coli
P. mirabilis 889 = assay: MIC against human bacteria in vitro; type: cell-based
[6] = test system: Ps. aeruginosa NCTC 10662; assay: MIC against human bacteria in vitro; type: cell-based; conditions: Pseudomonas aeruginosa, NCTC10662; Ps. aeruginosa NCTC 10662; 5% chocolated horse blood agar, 18 hours; read-out: MIC
[7] = test system: Haemophilus influenzae Wy21; assay: MIC against human bacteria in vitro; type: cell-based; conditions: Haemophilus influenzae Wy21; 5% chocolated horse blood agar, 18 hours; read-out: MIC
[8] = test system: Neisseria catarrhalis 1502; assay: MIC against human bacteria in vitro; type: cell-based
[9] = test system: Corynebacterium xerosis 9755; assay: MIC against human bacteria in vitro; type: cell-based; conditions: Corynebacterium xerosis 9755; 5% chocolated horse blood agar, 18 hours; read-out: MIC
Sarcina lutea 8340 = assay: MIC against human bacteria in vitro; type: cell-based; conditions: Micrococcus luteus; Sarcina lutea 8340; 5% chocolated horse blood agar, 18 hours; read-out: MIC
Staph. aureus Oxford = assay: MIC against human bacteria in vitro; type: cell-based; conditions: Staphylococcus aureus; Staph. aureus Oxford; 5% chocolated horse blood agar, 18 hours; read-out: MIC
Staph. aureus Russell = assay: MIC against human bacteria in vitro; type: cell-based; conditions: Staphylococcus aureus
Staph. aureus W2827 = assay: MIC against human bacteria in vitro; type: cell-based; conditions: Staphylococcus aureus
Strep. agalactiae 2788-B = assay: MIC against human bacteria in vitro; type: cell-based; conditions: Streptococcus agalactiae; Strep. agalactiae 2788-B; 5% chocolated horse blood agar, 18 hours; read-out: MIC
Strep. pneumoniae CN33 = assay: MIC against human bacteria in vitro; type: cell-based; conditions: Streptococcus pneumoniae
E. coli NCTC 10418 [10] = assay: MIC against veterinary bacteria in vitro; conditions: Escherichia coli, NCTC10418, 18 h
Experimental: (§1) The activity of the compounds of the Examples against various veterinarily important bacteria, was assayed in vitro using two-fold serial dilutions in Diagnostic Sensitivity Test Agar inoculated with 10^4 organisms.

E. coli E1 = assay: MIC against veterinary bacteria in vitro; conditions: Escherichia coli, E1, 18 h
Experimental: as §1

S. dublin S7 = assay: MIC against veterinary bacteria in vitro; conditions: Salmonella enterica, S7, 18 h
Experimental: as §1

Past. multocida PA1 = assay: MIC against veterinary bacteria in vitro; conditions: Pasteurella multocida, PA1, 18 h
Experimental: as §1

Past. multocida PA2 = assay: MIC against veterinary bacteria in vitro; conditions: Pasteurella multocida, PA2, 18 h
Experimental: as §1

Past. haemolytica PA5 = assay: MIC against veterinary bacteria in vitro; conditions: Mannheimia haemolytica, PA5, 18 h
Experimental: as §1

[11] = test system: Staph. aureus 152 (pen. sens); assay: MIC against veterinary bacteria in vitro; conditions: Staphylococcus aureus, 18 h
Experimental: as §1

[12] = test system: Strep. suis (group D) SPS11; assay: MIC against veterinary bacteria in vitro; conditions: Streptococcus suis, 18 h
Experimental: as §1

Strep. agalactiae SPA1 = assay: MIC against veterinary bacteria in vitro; conditions: Streptococcus agalactiae, SPA1, 18 h
Experimental: as §1

Row | SMILES | MIC (M. suipneumoniae NB12) | MIC (M. suipneumoniae JF 435) | MIC (M. suipneumoniae Str. 11) | MIC (M. suipneumoniae MS 16) | MIC [1] | MIC (M. suipneumoniae TAM 6N) | MIC [2] | MIC (M. hyorhinis ATCC 25021) | MIC (M. gallisepticum S6) | MIC [6] | MIC [7] | MIC [9] | MIC (Sarcina lutea 8340) | MIC (Staph. aureus Oxford) | MIC (Strep. agalactiae 2788-B) | MIC (E. coli NCTC 10418 [10]) | MIC (E. coli E1) | MIC (S. dublin S7) | MIC (Past. multocida PA1) | MIC (Past. multocida PA2) | other results
1 | C/C(=C\c1nc(C)c(-c2ccccc2)o1)C[C@@H]1OC[C@H](C[C@@H]2O[C@H]2[C@@H](C)[C@H](C)O)[C@@H](O)[C@H]1O [Example 40, 4-Methyl-2-(1-normon-2-yl)-5-phenyloxazole A] | > 10 µg/mL | > 10 µg/mL | > 10 µg/mL | > 10 µg/mL | > 10 µg/mL | > 10 µg/mL | > 10 µg/mL | > 10 µg/mL | > 10 µg/mL | > 100 µg/mL | 50 µg/mL (≈ 109 µM) | > 100 µg/mL | > 100 µg/mL | 100 µg/mL (≈ 219 µM) | > 100 µg/mL | > 80 µg/mL | > 80 µg/mL | > 80 µg/mL | 80 µg/mL (≈ 175 µM) | 80 µg/mL (≈ 175 µM) | MIC (M. suipneumoniae UCD 1; M. suipneumoniae UCD 1, 6 days, 37° C., read-out: MIC): > 10 µg/mL; MIC ([3]; M. suipneumoniae NCTC 10110, 6 days, 37° C., read-out: MIC): > 10 µg/mL; MIC ([4]; M. bovigenitalium ATCC 14173, 6 days, 37° C., read-out: MIC): 10 µg/mL (≈ 21.9 µM); MIC (M. dispar NCTC 10125; M. dispar NCTC 10125, 6 days, 37° C., read-out: MIC): > 10 µg/mL; MIC (E. coli NCTC 10418 [5]; NCTC10418, 18 h): > 100 µg/mL; MIC (P. mirabilis 889; Proteus mirabilis, 889, 18 h): > 100 µg/mL; MIC ([8]; Neisseria catarrhalis 1502, 5% chocolated horse blood agar, 18 hours, read-out: MIC): 50 µg/mL (≈ 109 µM); MIC (Staph. aureus Russell; Staph. aureus Russell, 5% chocolated horse blood agar, 18 hours, read-out: MIC): 100 µg/mL (≈ 219 µM); MIC (Staph. aureus W2827; Staph. aureus W2827, 5% chocolated horse blood agar, 18 hours, read-out: MIC): > 100 µg/mL; MIC (Strep. pneumoniae CN33; CN33, 18 h): > 100 µg/mL; MIC (Past. haemolytica PA5): > 80 µg/mL; MIC [11]: 80 µg/mL (≈ 175 µM); MIC [12]: > 80 µg/mL; MIC (Strep. agalactiae SPA1): > 80 µg/mL
2 | C/C(=C\c1ncc(-c2cccc(C#N)c2)o1)C[C@@H]1OC[C@H](C[C@@H]2O[C@H]2[C@@H](C)[C@H](C)O)[C@@H](O)[C@H]1O [Example 5, 5-m-cyanophenyl-2-(1-normon-2-yl)oxazole A] | 0.05 µg/mL (≈ 0.107 µM) | 0.1 µg/mL (≈ 0.213 µM) | 0.05 µg/mL (≈ 0.107 µM) | 0.05 µg/mL (≈ 0.107 µM) | 0.05 µg/mL (≈ 0.107 µM) | 0.1 µg/mL (≈ 0.213 µM) | 0.05 µg/mL (≈ 0.107 µM) | 0.05 µg/mL (≈ 0.107 µM) | 0.5 µg/mL (≈ 1.07 µM) | > 50 µg/mL | 1.2 µg/mL (≈ 2.56 µM) | > 50 µg/mL | > 50 µg/mL | 1.2 µg/mL (≈ 2.56 µM) | 2.5 µg/mL (≈ 5.34 µM) | > 80 µg/mL | > 80 µg/mL | > 80 µg/mL | 5 µg/mL (≈ 10.7 µM) | 2.5 µg/mL (≈ 5.34 µM) | MIC (M. suipneumoniae UCD 1): 0.1 µg/mL (≈ 0.213 µM); MIC [3]: 0.1 µg/mL (≈ 0.213 µM); MIC [4]: 0.025 µg/mL (≈ 0.0534 µM); MIC (M. dispar NCTC 10125): 0.025 µg/mL (≈ 0.0534 µM); MIC (E. coli NCTC 10418 [5]; NCTC10418, E. coli NCTC 10418, agar with 5% chocolated horse blood, 18 hours, 37° C., read-out: MIC): > 50 µg/mL; MIC (P. mirabilis 889; Proteus mirabilis, P. mirabilis 889, 5% chocolated horse blood agar, 18 hours, read-out: MIC): > 50 µg/mL; MIC ([8]; Neisseria, 1502, 18 h): 5 µg/mL (≈ 10.7 µM); MIC (Staph. aureus Russell; 18 h): 5 µg/mL (≈ 10.7 µM); MIC (Staph. aureus W2827; W2827, 18 h): 5 µg/mL (≈ 10.7 µM); MIC (Strep. pneumoniae CN33; Strep. pneumoniae CN33, 5% chocolated horse blood agar, 18 hours, read-out: MIC): 2.5 µg/mL (≈ 5.34 µM); MIC (Past. haemolytica PA5): 40 µg/mL (≈ 85.4 µM); MIC [11]: 0.625 µg/mL (≈ 1.33 µM); MIC [12]: 10 µg/mL (≈ 21.3 µM); MIC (Strep. agalactiae SPA1): 0.625 µg/mL (≈ 1.33 µM)
